Laboratory results: ChEMBL document CHEMBL1201862, “PubChem BioAssay data set” (2004)
The source made the active and inactive calls.

Key:
[1] = biological target: T1, Sentrin-specific protease 8 (Homo sapiens, UniProt Q96LD8); assay type: functional;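 also: luminescence read-out of SENP8 inhibition, dose-response confirmation following an ultra-high-throughput screen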
T1 sequence (Q96LD8 whole entry): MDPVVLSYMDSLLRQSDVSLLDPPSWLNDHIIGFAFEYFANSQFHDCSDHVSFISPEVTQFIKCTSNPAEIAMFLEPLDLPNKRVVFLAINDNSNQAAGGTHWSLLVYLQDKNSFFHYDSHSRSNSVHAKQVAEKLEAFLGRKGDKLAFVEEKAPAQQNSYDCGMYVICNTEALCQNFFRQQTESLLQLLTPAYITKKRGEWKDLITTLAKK

[2] = biological target: T2, Sentrin-specific protease 7 (Homo sapiens, UniProt Q9BQF6); assay type: functional;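 also: Luminescence-based dose-response confirmation of ultra-high-throughput screening hits, measuring inhibition of SENP7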
T2 sequence (Q9BQF6 whole entry): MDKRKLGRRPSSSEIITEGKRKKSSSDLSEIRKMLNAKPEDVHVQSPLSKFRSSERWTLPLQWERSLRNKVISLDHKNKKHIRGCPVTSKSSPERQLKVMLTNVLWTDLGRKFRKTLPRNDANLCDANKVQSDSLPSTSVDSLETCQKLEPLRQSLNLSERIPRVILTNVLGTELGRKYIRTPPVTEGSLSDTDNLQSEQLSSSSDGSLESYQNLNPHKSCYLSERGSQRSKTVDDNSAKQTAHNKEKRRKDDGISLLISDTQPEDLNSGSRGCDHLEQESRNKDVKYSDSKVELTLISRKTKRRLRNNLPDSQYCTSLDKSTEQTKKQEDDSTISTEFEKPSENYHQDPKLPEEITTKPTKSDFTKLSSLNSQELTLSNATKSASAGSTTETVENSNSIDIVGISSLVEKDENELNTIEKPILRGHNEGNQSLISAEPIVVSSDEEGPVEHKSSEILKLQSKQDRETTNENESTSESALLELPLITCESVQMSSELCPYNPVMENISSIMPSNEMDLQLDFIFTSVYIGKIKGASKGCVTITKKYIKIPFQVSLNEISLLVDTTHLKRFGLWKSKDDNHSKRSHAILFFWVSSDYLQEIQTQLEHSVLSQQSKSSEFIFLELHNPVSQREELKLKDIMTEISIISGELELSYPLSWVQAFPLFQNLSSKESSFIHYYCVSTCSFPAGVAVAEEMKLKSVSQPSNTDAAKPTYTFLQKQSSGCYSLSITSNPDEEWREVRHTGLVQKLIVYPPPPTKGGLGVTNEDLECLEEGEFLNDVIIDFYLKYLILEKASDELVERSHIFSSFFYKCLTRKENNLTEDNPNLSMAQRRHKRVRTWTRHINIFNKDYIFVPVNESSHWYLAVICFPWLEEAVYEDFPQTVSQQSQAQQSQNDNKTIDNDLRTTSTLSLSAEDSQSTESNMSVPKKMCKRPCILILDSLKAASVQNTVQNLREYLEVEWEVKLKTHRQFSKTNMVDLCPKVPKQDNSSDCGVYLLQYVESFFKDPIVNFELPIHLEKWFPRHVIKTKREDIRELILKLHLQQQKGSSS

[3] = biological target: T3, Histone-lysine N-methyltransferase NSD2 (Homo sapiens, UniProt O96028); assay type: biochemical
T3 sequence (O96028 whole entry): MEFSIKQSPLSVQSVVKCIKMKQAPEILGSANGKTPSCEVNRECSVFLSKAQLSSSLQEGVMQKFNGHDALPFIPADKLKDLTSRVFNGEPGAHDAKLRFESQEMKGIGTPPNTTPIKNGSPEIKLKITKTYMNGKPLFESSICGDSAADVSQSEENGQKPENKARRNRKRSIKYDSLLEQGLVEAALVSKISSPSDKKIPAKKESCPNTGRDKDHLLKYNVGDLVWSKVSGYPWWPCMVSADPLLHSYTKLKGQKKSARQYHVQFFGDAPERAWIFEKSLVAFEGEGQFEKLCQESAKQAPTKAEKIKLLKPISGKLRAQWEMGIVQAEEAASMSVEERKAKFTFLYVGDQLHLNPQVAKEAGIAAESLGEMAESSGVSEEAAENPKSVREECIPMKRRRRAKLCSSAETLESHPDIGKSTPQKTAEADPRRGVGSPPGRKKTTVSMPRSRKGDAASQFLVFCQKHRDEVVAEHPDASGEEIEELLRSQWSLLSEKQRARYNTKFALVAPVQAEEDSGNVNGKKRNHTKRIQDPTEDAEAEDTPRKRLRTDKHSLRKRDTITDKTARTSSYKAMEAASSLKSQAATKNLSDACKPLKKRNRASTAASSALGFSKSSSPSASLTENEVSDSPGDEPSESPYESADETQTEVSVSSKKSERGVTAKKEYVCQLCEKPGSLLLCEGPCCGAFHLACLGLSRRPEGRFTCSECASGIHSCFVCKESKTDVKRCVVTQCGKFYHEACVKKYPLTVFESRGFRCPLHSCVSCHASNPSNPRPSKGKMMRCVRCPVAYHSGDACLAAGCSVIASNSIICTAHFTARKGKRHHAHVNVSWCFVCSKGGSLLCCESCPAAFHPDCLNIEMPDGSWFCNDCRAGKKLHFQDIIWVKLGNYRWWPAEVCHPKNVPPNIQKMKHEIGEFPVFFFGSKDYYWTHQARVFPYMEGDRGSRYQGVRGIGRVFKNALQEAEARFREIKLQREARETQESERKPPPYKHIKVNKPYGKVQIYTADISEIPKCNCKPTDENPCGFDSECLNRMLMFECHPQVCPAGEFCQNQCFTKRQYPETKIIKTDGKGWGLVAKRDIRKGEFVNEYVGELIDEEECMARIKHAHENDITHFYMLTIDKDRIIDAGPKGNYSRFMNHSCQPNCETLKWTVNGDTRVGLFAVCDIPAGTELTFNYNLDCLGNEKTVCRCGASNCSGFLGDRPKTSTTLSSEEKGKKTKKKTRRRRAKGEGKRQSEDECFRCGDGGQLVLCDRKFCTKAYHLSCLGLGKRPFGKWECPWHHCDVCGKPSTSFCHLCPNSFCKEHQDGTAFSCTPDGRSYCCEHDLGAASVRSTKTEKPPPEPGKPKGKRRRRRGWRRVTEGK

[4] = biological target: T4, Tyrosyl-DNA phosphodiesterase 2 (Homo sapiens, UniProt O95551); assay: human TDP2 enzyme inhibitors, dose response, biochemical, epi absorbance, IC50 (AID 743297)
T4 sequence (O95551 whole entry): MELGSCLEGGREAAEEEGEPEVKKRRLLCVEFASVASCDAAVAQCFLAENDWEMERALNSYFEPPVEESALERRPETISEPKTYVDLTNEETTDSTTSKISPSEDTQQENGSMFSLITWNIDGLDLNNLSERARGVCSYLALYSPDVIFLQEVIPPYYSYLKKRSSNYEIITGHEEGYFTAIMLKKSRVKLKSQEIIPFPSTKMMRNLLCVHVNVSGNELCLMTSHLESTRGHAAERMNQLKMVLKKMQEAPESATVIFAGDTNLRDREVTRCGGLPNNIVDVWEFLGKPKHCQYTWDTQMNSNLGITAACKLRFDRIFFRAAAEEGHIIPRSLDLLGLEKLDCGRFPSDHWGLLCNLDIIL

Row | SMILES | IC50 [1] | IC50 [2] | AC50 [3] | IC50 [4]
1 | Cc1ccc(C(=O)NNc2cc(N3CCCC3)nc(N3CCCC3)n2)cc1 | 4.6 µM (active) | 1.74 µM (active) | – | –
2 | Cc1cc(/C=C2\SC(=S)N(C)C2=O)c(C)n1-c1ccc(O)cc1 | 8.79 µM (active) | 5.42 µM (active) | – | –
3 | COC(=O)c1cccc(-c2ccc(C(c3c(C)n[nH]c3O)c3c(C)n[nH]c3O)o2)c1 | – | – | > 20 µM (inactive) | > 128 µM (inactive)
4 | O=C1/C(=N\c2cccc(O)c2)C(N2CCCCC2)=C(O)c2ccccc21 | – | – | 8.12 µM (active) | > 42.8 µM (inactive)
